# ChEMBL document CHEMBL1629570, “Posaconazole mono- or combination therapy for treatment of murine zygomycosis” (Antimicrob Agents Chemother, 2009)
# The source made the active and inactive calls. The rule behind the calls is not given here.
# Experiments:
# Assay type in all cases: functional, organism-based
# [1] = system: Rhizopus arrhizus; test: Antifungal activity against Rhizopus oryzae 99-880 infected in diabetic ketoacidotic BALB/c mouse assessed as improved time to death at 10 mg/kg/day, po administered 24 hrs post infection for 4 days
# [2] = system: Rhizopus arrhizus; test: Antifungal activity against Rhizopus oryzae 99-880 infected in diabetic ketoacidotic BALB/c mouse assessed as improved time to death at 30 mg/kg/day, po administered 24 hrs post infection for 4 days
# [3] = system: Rhizopus arrhizus; test: Antifungal activity against Rhizopus oryzae 99-880 infected in diabetic ketoacidotic BALB/c mouse assessed as improved time to death at 60 mg/kg/day, po administered 24 hrs post infection for 4 days
# [4] = system: Rhizopus arrhizus; test: Antifungal activity against Rhizopus oryzae 99-880 infected in diabetic ketoacidotic mouse assessed as mouse survival at 10 mg/kg/day, po administered 24 hrs post infection for 4 days
# [5] = system: Rhizopus arrhizus; test: Antifungal activity against Rhizopus oryzae 99-880 infected in diabetic ketoacidotic mouse assessed as mouse survival at 30 mg/kg/day, po administered 24 hrs post infection for 4 days
# [6] = system: Rhizopus arrhizus; test: Antifungal activity against Rhizopus oryzae 99-880 infected in diabetic ketoacidotic mouse assessed as mouse survival at 60 mg/kg/day, po administered 24 hrs post infection for 4 days
# [7] = system: Rhizopus arrhizus; test: Antifungal activity against Rhizopus oryzae 99-880 infected in diabetic ketoacidotic mouse assessed as reduction of fungal burden in kidneys at 60 mg/kg/day, po administered 8 hrs post infection for 3 days; conditions: Kidney
# [8] = system: Rhizopus arrhizus; test: Antifungal activity against Rhizopus oryzae 99-880 infected in diabetic ketoacidotic mouse assessed as reduction of fungal burden in brain at 60 mg/kg/day, po administered 8 hrs post infection for 3 days
# [9] = system: Rhizopus arrhizus; test: Antifungal activity against Rhizopus oryzae 99-880 infected in neutropenic BALB/c mouse assessed as improved time to death at 60 mg/kg/day, po administered 24 hrs post infection for 4 days
# [10] = system: Rhizopus arrhizus; test: Antifungal activity against Rhizopus oryzae 99-880 infected in neutropenic mouse assessed as reduction of fungal burden in kidneys at 60 mg/kg/day, po administered 8 hrs post infection for 3 days; conditions: Kidney
# [11] = system: Rhizopus arrhizus; test: Antifungal activity against Rhizopus oryzae 99-880 infected in neutropenic mouse assessed as reduction of fungal burden in brain at 60 mg/kg/day, po administered 8 hrs post infection for 3 days
structure (smiles),measurement,setting,value
CC[C@@H]([C@H](C)O)n1ncn(-c2ccc(N3CCN(c4ccc(OC[C@@H]5CO[C@@](Cn6cncn6)(c6ccc(F)cc6F)C5)cc4)CC3)cc2)c1=O,Activity,[1],inactive
same,Activity,[2],inactive
same,Activity,[3],Active
same,Activity,[4],inactive
same,Activity,[5],inactive
same,Activity,[6],inactive
same,Activity,[7],inactive
same,Activity,[8],inactive
same,Activity,[9],inactive
same,Activity,[10],inactive
same,Activity,[11],inactive
